The values that follow come from US20140161827A1, “COMPOSITIONS AND METHODS FOR TREATING CANCER” (University of Virginia Patent Foundation, priority 2011, published 2014).

Experiment [1] deals with MCF-7-5C cells. The experiment in a line: Apoptosis in MCF-7-5C cells, E2 and T-DM-1 alone and in combination. The class given is cell-based. To be noted: agent alone.
For experiment [2], the system named is LTED cells. Put plainly: Levels of apoptotic proteins in treated LTED cells (immunoblot of cytosolic and mitochondrial fractions, immunoprecipitation). To be noted: for Mcl-1 level: FTS 75 μM 0-48 h (by 24 h) or estradiol 0-48 h; for Bim level (BimEL, BimL): FTS 75 μM 0-48 h or estradiol 0-48 h (early time points 4, 8 h); for Survivin level: FTS 75 μM (from 8 to 16 h, undetectable at 24 and 48 h) or estradiol; for Phospho JNK level: FTS 75 μM over 48 hours or estradiol; for Cytochrome c level in the cytosol / Smac (Smac/Diablo) level in the cytosol: FTS at 24 and 48 h, estradiol by 48 h. The class given is cell-based, human. The protocol: The inventors herein initially examined the class of proteins which influences MOMP (mitochondrial outer membrane pore) formation, a key component of the intrinsic pathway of apoptosis. Pro-apoptotic members such as Bax, Bim, and Bak, promote the release of Cytochrome c from the mitochondria, whereas anti-apoptotic members, such as Bcl-2 and Mcl-1, prevent release. The balance of pro-apoptotic and anti-apoptotic Bcl-2 proteins therefore influences the fate of the cell. LTED cells were treated with 75 μM FTS for 0, 4, 8, 16, 24 and 48 h with examination of cytosolic fractions (FIG. 1A).
To ascertain whether Bax was activated in FTS-treated LTED cells, Bcl-2 was immunoprecipitated and then probed for Bim and Bax (See FIG. 1B). Probed cell extracts were probed with the use of an antibody that recognizes only the conformationally altered Bax protein. […] The pro-apoptotic effect of Bim is predominantly through its binding to Bcl-2 that ablates Bcl-2 pro-survival function. As shown in FIG. 1B we found the interaction between Bim and Bcl-2 is increased, whereas the interaction between Bax and Bcl-2 was reduced. As evidence of the exodus of proteins through mitochondrial membrane pores, Cytochrome c and Smac levels in the cytosol were increased at 24 and 48 h, times when Mcl-1 was decreased and Bim, increased (FIG. 1A). […] After showing these effects on MOMP, other key factors involved in apoptosis were examined.
Cells were treated with estradiol for 0, 2, 4, 8, 24 and 48 h and cytosolic fractions prepared. […] Mitochondrial fractions (FIG. 1D, right panel), confirmed the increase in Bim isoforms. […] Because Bim appeared to be critical for estradiol-mediated apoptosis, we carried out a titration of E2, probed for Bim and found it increased over time (See FIG. 1E).
Cells grown in 100 mm dishes were washed with cold PBS and extracted with 1 ml lysis buffer (50 mM Tris-HCl, 150 mM NaCl, 5 mM EDTA, 25 mM NaF, 2 mM NaVO4, 5% glycerol, 1% Triton X-100, 10 μg/ml leupeptin, aprotinin, and pepstatin). Samples were incubated on ice for 30 min, sonicated, and centrifuged at 14,000 rpm for 10 min at 4° C. Supernatants containing 0.5 mg total protein were incubated with antibody against the target protein at 4° C. overnight before addition of 40 μl Protein G beads (Invitrogen) and continued incubation at 4° C. for 2 h. The protein G beads with immunocomplex were centrifuged at 14,000 rpm for 20 sec. The supernatant was carefully removed. The beads were washed twice with 1 ml buffer II (20 mM MOPS, 2 mM EGTA, 5 mM EDTA, 25 mM NaF, 40 mM β-glycerophosphate, 10 mM sodium pyrophosphate, 2 mM NaVO4, 0.5% Triton X-100, 1 mM PMSF, 10 μg/ml leupeptin, aprotinin, and pepstatin) and then boiled in 50 μl 2× Laemmli's buffer. The samples were subjected to electrophoresis in 10% SDS polyacrylamide gel followed by immunoblotting.

Experiment [3] relates to LTED (long-term estrogen deprived) cells. The experiment in a line: Growth inhibition and drug interaction assay (nuclei count, combination index), LTED. The class given is cell-based, human.
Description: When the combination index is equivalent to one (CI=1), this means the two drugs work together in an additive manner. […] The effective dose one (D1) is then plotted on the x-axis and the effective dose two (D2) was plotted on the y-axis. The plotting of the effective dose (ED) can be is done at Fa equals 0.5, 0.75, 0.9 and 0.95. This generates the isobologram.
Cells were plated in six-well plates at a density of 60,000 cells per well. Two days later, the cells were treated in triplicate as described in the descriptions of the figures. At the end of treatment, cells were rinsed twice with saline. Nuclei were prepared by sequential addition of 1 mL HEPES-MgCl2 solution (0.01 mol/L HEPES and 1.5 mmol/L MgCl2) and 0.1 mL ZAP solution [0.13 mol/L ethylhexadecyldimethylammonium bromide in 3% glacial acetic acid (v/v)] and were counted using a Coulter counter (BeckmanCoulter, Inc., Fullerton, Calif.). […] The combination index and values with a mean and standard deviation were calculated using the Monte Carlo simulation using the computer software CalcuSyn from Biosoft (Cambridge, U.K.) [10].
The nature of the interaction between the agents was evaluated by the combination index method of Chou and Talalay [8,9]. […]
Where D is the dose that yields x % growth inhibition and α=0 for mutually exclusive drugs and α=1 for mutually non-exclusive drugs. Synergy as calculated and defined by the CalcuSyn software as a CI<1; additivity is CI=1 and antagonism is CI>1[10].
In experiment [4] the test system is LTED cells. Put plainly: FTS-induced apoptosis and caspase involvement in LTED cells. The experiment is classed as cell-based, human. The procedure:
FTS has been reported to invoke cell death through caspase activation in non-breast tissues. To address whether FTS was promoting death of breast cancer cells by activation of caspases LTED cells were treated with either vehicle, FTS, or FTS in the presence of increasing concentrations of the pan-caspase inhibitor z-VAD-fmk (See FIG. 1C top panel). […] Caspase-8 activity does appear to increase; however this is not inhibited by Z-IETD-FMK. See FIG. 2, showing a time course bar graph (2A) and a cell viability versus concentration curve (2B) displaying (FIG. 2A) the effect of FTS and curcumin in combination on wild type MCF-7 cells; and (FIG. 2B) the effect of FTS alone or in combination with curcumin on MCF-7 cell viability.

The test system of experiment [5] is MCF-7 cells. Put plainly: Growth inhibition and drug interaction assay (nuclei count, combination index), MCF-7. To be noted: Homo sapiens, MCF7, FIG. 3, read-out: concentration with 50% inhibitory effect. The class given is cell-based. The text has this:
We examined some of these agents in both the non-adapted cell lines (See FIGS. 4, 6, 8) and adapted cell lines (See FIGS. 5, 7, 9). We treated breast cancer cells with increasing concentrations of the individual drugs followed by testing with their combinations. We determined the number of cells that were killed (fraction affected, fa) and the number of cells that were not affected by the drug (fraction unaffected, fu) (See FIG. 4). Then dose effect curves are transformed into their corresponding linear forms by the median-effect plot where y=log(fa/fu) vs. x=log (D)[8,34]. From the median effect plot the combination index (CI) can be determined. […]
Cells were plated in six-well plates at a density of 60,000 cells per well. […] Nuclei were prepared by sequential addition of 1 mL HEPES-MgCl2 solution (0.01 mol/L HEPES and 1.5 mmol/L MgCl2) and 0.1 mL ZAP solution [0.13 mol/L ethylhexadecyldimethylammonium bromide in 3% glacial acetic acid (v/v)] and were counted using a Coulter counter (BeckmanCoulter, Inc., Fullerton, Calif.). […] The combination index and values with a mean and standard deviation were calculated using the Monte Carlo simulation using the computer software CalcuSyn from Biosoft (Cambridge, U.K.).
The nature of the interaction between the agents was evaluated by the combination index method of Chou and Talalay. […]

[6] abbreviates: FTS-treated LTED cells, Bcl-2 immunoprecipitation.

Where a SMILES comes first, the peptide text is derived from it. The star is where a group is joined. Cbz = O=C(OCc1ccccc1)*; CH2F = FC*

For `C[C@]12CC[C@@H]3c4ccc(O)cc4CC[C@H]3[C@@H]1CC[C@@H]2O` [E2, 17β-Estradiol], in experiment [1], the induction of apoptosis entry is on record as “induced apoptosis”. In experiment [2] (LTED cells), the Mcl-1 level result was “decreased”; the “Bim level (BimEL, BimL)” value is reported as “increased”; the Survivin level entry is “not”; the “Phospho JNK level” value is on record as “increased”. In experiment [2] (LTED cells), the “Cytochrome c level in the cytosol” value was “released into the cytosol” and the “Smac (Smac/Diablo) level in the cytosol” value is “released into the cytosol”. For the same compound, the Bok level result in experiment [2] (LTED cells, titration of E2) is recorded as “increased in a concentration-dependent manner”.
Turning to `CC(C)=CCC/C(C)=C/CC/C(C)=C/CSc1ccccc1C(=O)O` [FTS, S-trans, trans-Farnesylthiosalicyclic acid], the cell number in experiment [3] (FTS alone, doses 25, 50, 75 and 100 μM) is recorded as 14 % of control. Further, the “caspase-8 changes (death receptor pathway)” value in experiment [4] (FTS-treated LTED cells) is “no substantial caspase-8 changes”. Further, in experiment [2] (FTS-treated LTED cells), the “Apoptosis inducing factor (AIF) in the cytosol” value is “appeared in the cytosol only at 48 h”. For the same compound, in experiment [2] (setting [6]), the “interaction between Bax and Bcl-2” value is “reduced”; the “interaction between Bim and Bcl-2” value is on record as “increased”. Also, the “Bax activation (conformationally altered Bax)” value in experiment [2] (FTS-treated LTED cells, conformation-specific antibody) was “underwent a conformational change”. For the same compound, in experiment [2] (LTED cells), the Mcl-1 level entry is on record as “decrease”; the “Bim level (BimEL, BimL)” value is reported as “increase”; the Survivin level result is recorded as “decreased”; the “Phospho JNK level” value is listed as “increased”. Moreover, in experiment [2] (LTED cells), the “Cytochrome c level in the cytosol” value is “increased” and the “Smac (Smac/Diablo) level in the cytosol” value is given as “increased”. The Bcl-2 level result in experiment [2] (LTED cells, FTS 75 μM 0-48 h, cytosolic fractions) was “unchanged”. Besides, the XIAP level entry in experiment [2] (LTED cells, FTS 75 μM or estradiol) is reported as “did not change”. In addition, the p21 level result in experiment [2] (LTED cells, FTS 75 μM, from 4 h to 48 h) is on record as “steady decrease”.
Turning to `CC[C@@H](C(=O)[C@@H](C)[C@@H](O)[C@H](C)[C@@H]1O[C@@H]([C@@H](CC)C(=O)O)CC[C@@H]1C)[C@H]1O[C@]2(C=C[C@@H](O)[C@]3(CC[C@@](C)([C@H]4CC[C@](O)(CC)[C@H](C)O4)O3)O2)[C@H](C)C[C@@H]1C` [Salinomycin], the IC50 in experiment [5] is 2000 nM.
`COc1cc(/C=C/C(=O)CC(=O)/C=C/c2ccc(O)c(OC)c2)ccc1O` [curcumin]: the “concentration at which initial effects in reducing cell number were observed” value in experiment [3] (dose response, preliminary studies) turned out to be 250 nM. In addition, the “concentration showing effects in reducing cell number, later studies” value in experiment [3] (later studies) stood at 125 nM.
Regarding `COC(=O)C[C@H](NC(=O)[C@H](C)NC(=O)[C@@H](NC(=O)OCc1ccccc1)C(C)C)C(=O)CF` [z-VAD-fmk] (Cbz-Val-Ala-Asp(OMe)-CH2F), the “effect on FTS-induced apoptosis” value in experiment [4] (LTED cells, FTS plus increasing concentrations of pan-caspase inhibitor) is given as “blocked”.
On to T-DM1, for which the induction of apoptosis result in experiment [1] is “induced apoptosis”.
